In PMC6508934, “Structural basis for mammalian nucleotide sugar transport” (eLife, 2019):
Where a chain is given by its changes, count along the chain named. Values joined by “and” are separate entries in the source; they are usually repeats but may differ in a detail not shown here. Identical values can stand only once.

Key:
mCST∆C [1] = target: T1, mCST∆C (Mus musculus, UniProt Q61420); test: Scintillation proximity binding assay (SPA), displacement of 30 nM [3H]CMP; settings: full SPA titration against 30 nM [3H]CMP
T1 construct: modifying the full-length construct using site-directed mutagenesis to remove the last 15 residues (322-336); made in house; host or cells: Pichia pastoris
T1 sequence (Q61420 1-321): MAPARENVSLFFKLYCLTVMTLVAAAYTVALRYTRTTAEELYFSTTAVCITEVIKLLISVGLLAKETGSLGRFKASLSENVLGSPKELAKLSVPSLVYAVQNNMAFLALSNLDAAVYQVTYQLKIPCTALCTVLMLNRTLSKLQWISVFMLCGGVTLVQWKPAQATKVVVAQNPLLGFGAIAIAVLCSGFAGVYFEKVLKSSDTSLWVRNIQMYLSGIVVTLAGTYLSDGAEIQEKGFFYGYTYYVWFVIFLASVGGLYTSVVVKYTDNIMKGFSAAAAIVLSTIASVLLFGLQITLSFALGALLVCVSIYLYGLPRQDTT
Protocol: Figure 1. Functional properties of mCST. (A) Purified, detergent-solubilized mCST was bound to SPA beads and the indicated compound was titrated against 30 nM [^3H]CMP to determine its affinity. Solid symbols denote titrations done with mCST and the open symbols are for mCST∆C. (B) Time course of 30 µM CMP-Sia uptake for purified mCST reconstituted into lipid vesicles with (black) or without (red) 300 µM CMP inside the vesicles. […] (C) The initial velocity of CMP-Sia uptake for either mCST (solid circles) or mCST∆C (open circles) reconstituted into CMP-filled vesicles is plotted as a function of substrate concentration to determine the Km and Vmax for transport. In all panels, the symbols show the mean ± standard error of the mean (SEM) for n = 2, except for the CMP titrations in (A), and the titration for mCST in (C) where n = 4. Figure 1—figure supplement 1. Description of SLC35 proteins. (A) Diagram of the nucleotide-sugar transporter (NST) transport cycle. Nucleotide sugars are first synthesized in the cytoplasm (or nucleus for CMP-Sia). They are then transported into the Golgi lumen by NSTs (blue box). A large family of glycosyltransferase enzymes transfers the sugar to a glycan acceptor, leaving behind the nucleotide monophosphate (NMP), which is then transported back to the cytoplasm by the NST. (B) A list of proteins in the SLC35 family with a known function and the associated nucleotide sugar(s) that they transport. SLC35B2 and SLC35B3 are listed for completeness even though they transport PAPS, the substrate used in sulfonation reactions inside the Golgi. In mammals, mannose (Man) is only present in the oligosaccharide precursor that is synthesized in the cytoplasm and then transported across the ER membrane, by a family of transporters distinct from NSTs, before being added to nascent polypeptides to form the base for N-linked glycans. […] (C) The structural formulas of the nucleotide phosphate (left) and sugar (right) moieties of nucleotide sugars are shown. The ‘‘~” symbol indicates the bond that links the two moieties. […]

CST = settings: cited from earlier work
mCST [2] = target: T2, mCST (Mus musculus, UniProt Q61420); test: Scintillation proximity binding assay (SPA), displacement of 30 nM [3H]CMP; design: Full-length mCST cDNA was synthesized (Bio Basic) and subcloned into the Pichia pastoris expression vector pPICZ; made in house; host or cells: Pichia pastoris
T2 sequence (Q61420 1-336): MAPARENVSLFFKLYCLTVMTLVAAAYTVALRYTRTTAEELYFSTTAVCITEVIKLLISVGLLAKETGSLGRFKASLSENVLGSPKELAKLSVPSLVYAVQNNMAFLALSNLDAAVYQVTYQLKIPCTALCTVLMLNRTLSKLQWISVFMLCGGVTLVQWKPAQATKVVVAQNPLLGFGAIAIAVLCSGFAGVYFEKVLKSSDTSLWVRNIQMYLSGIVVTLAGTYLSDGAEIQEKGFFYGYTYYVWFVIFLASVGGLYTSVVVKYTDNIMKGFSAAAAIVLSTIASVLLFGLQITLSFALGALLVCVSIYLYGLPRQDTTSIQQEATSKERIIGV
Protocol: Figure 1. Functional properties of mCST. (A) Purified, detergent-solubilized mCST was bound to SPA beads and the indicated compound was titrated against 30 nM [^3H]CMP to determine its affinity. Solid symbols denote titrations done with mCST and the open symbols are for mCST∆C. (B) Time course of 30 µM CMP-Sia uptake for purified mCST reconstituted into lipid vesicles with (black) or without (red) 300 µM CMP inside the vesicles. […] (C) The initial velocity of CMP-Sia uptake for either mCST (solid circles) or mCST∆C (open circles) reconstituted into CMP-filled vesicles is plotted as a function of substrate concentration to determine the Km and Vmax for transport. In all panels, the symbols show the mean ± standard error of the mean (SEM) for n = 2, except for the CMP titrations in (A), and the titration for mCST in (C) where n = 4. Figure 1—figure supplement 1. Description of SLC35 proteins. (A) Diagram of the nucleotide-sugar transporter (NST) transport cycle. Nucleotide sugars are first synthesized in the cytoplasm (or nucleus for CMP-Sia). They are then transported into the Golgi lumen by NSTs (blue box). A large family of glycosyltransferase enzymes transfers the sugar to a glycan acceptor, leaving behind the nucleotide monophosphate (NMP), which is then transported back to the cytoplasm by the NST. (B) A list of proteins in the SLC35 family with a known function and the associated nucleotide sugar(s) that they transport. SLC35B2 and SLC35B3 are listed for completeness even though they transport PAPS, the substrate used in sulfonation reactions inside the Golgi. In mammals, mannose (Man) is only present in the oligosaccharide precursor that is synthesized in the cytoplasm and then transported across the ER membrane, by a family of transporters distinct from NSTs, before being added to nascent polypeptides to form the base for N-linked glycans. […] (C) The structural formulas of the nucleotide phosphate (left) and sugar (right) moieties of nucleotide sugars are shown. The ‘‘~” symbol indicates the bond that links the two moieties. In mammals, two types of sialic acid may be transported into the Golgi: N-acetylneuraminic acid (Neu5Ac) or N-glycolylneuraminic acid (Neu5Gc). The ring atoms for the nucleobases and Neu5Ac and Gal are labeled. [drawing 1] Figure 1—figure supplement 2. Sequence alignment of mCST with other SLC35 and DMT proteins. The two letter prefix for each sequence name indicates the species as follows: mm: Mus musculus; hs: Homo sapiens; sc: Saccharomyces cerevisiae; sn: Starkeya novella; gs: Galdieria sulphuraria. […] The labeled yellow bars under the sequences indicate the extent of each TM. The interfacial alpha helix (IH) connecting TMs 2 and 3 is also indicated. [drawing 2] Figure 1—figure supplement 3.

[3] = no reference given; cited from earlier work
mCST (W247L) [4] = target: T3, mCST (W247L) (Mus musculus, UniProt Q61420, W247L); test: Intrinsic tryptophan fluorescence quenching assay
T3 sequence (Q61420 1-336 W247L): T2 sequence (Q61420 1-336) with W247L

mCST∆C [5] = target: T1, mCST∆C; test: Intrinsic tryptophan fluorescence quenching assay; type: binding; settings: fit of tryptophan fluorescence quenching, read-out: Kd (Trp-FL)
mCST [6] = target: T2, mCST; test: Intrinsic tryptophan fluorescence quenching assay
mCST (W247L) [7] = target: T3, mCST (W247L); test: SPA two-point CMP binding
mCST (W160L) [8] = target: T4, mCST (W160L) (Mus musculus, UniProt Q61420, W160L); test: SPA two-point CMP binding
T4 sequence (Q61420 1-336 W160L): T2 sequence (Q61420 1-336) with W160L

mCST (W207F) = target: T5, mCST (W207F) (Mus musculus, UniProt Q61420, W207F); test: SPA two-point CMP binding
T5 sequence (Q61420 1-336 W207F): T2 sequence (Q61420 1-336) with W207F

mCST (W160L) [9] = target: T4, mCST (W160L); test: Intrinsic tryptophan fluorescence quenching assay
mCST (W145L) [10] = target: T6, mCST (W145L) (Mus musculus, UniProt Q61420, W145L); test: SPA two-point CMP binding
T6 sequence (Q61420 1-336 W145L): T2 sequence (Q61420 1-336) with W145L

[11] = HPLC analysis of CMP-Sia hydrolysis in aqueous buffer; type: physicochemical; settings: AnP-treated CMP-Sia, AnP removed, pH 7.5 buffer, room temperature
mCST (W145L) [12] = target: T6, mCST (W145L); test: Intrinsic tryptophan fluorescence quenching assay
mCST (W207L) = target: T7, mCST (W207L) (Mus musculus, UniProt Q61420, W207L); test: SPA two-point CMP binding
T7 sequence (Q61420 1-336 W207L): T2 sequence (Q61420 1-336) with W207L

mCST Trp207 mutants = test: Intrinsic tryptophan fluorescence quenching assay; settings: W207L and W207F mutants
UDP-GlcNAc transporter = system: UDP-GlcNAc transporter; design: method as in Waldman and Rudnick, 1990; settings: monoanionic UMP compared to dianionic UMP; ref Waldman and Rudnick, 1990; cited from earlier work

With Nc1nc2c(ncn2[C@@H]2O[C@H](COP(=O)(O)O)[C@@H](O)[C@H]2O)c(=O)[nH]1 [GMP, Guanosine 5′-monophosphate] as the compound, how does the Kd (mCST∆C [1]) read?
The Kd was 5380 ± 1150 µM.

Which “Competitive inhibition of CMP-Sia transport (in words)” value (CST; ref Carey et al., 1980, Perez and Hirschberg, 1987) does the source give for CC(=O)N[C@H]1[C@H]([C@H](O)[C@H](O)CO)OC(O)(C(=O)O)C[C@@H]1O (stereo partly drawn) [Sia, sialic acid] here?
Its value is “does not competitively inhibit CMP-Sia transport”.

What about the “Binding to mCST (in words)” value (mCST [2]; SPA titration, Figure 1A) of the same compound?
The value was “does not bind mCST”.

For Nc1ccn([C@@H]2O[C@H](COP(=O)(O)O)[C@@H](O)[C@H]2O)c(=O)n1 [CMP, Cytidine 5'-monophosphate], which “Highest pKa of the phosphate group” value [3] is on record?
The value was 6.3.

What about the Kd (mCST (W247L) [4]) of the same compound?
Its Kd is 7.4 ± 2.6 µM.

And the Kd (mCST∆C [5])?
Its Kd is 11.1 ± 2.9 µM.

And the Kd (mCST [6])?
The Kd was 2.9 ± 1.1 µM.

And the “Quenching of intrinsic tryptophan fluorescence on CMP binding (in words)” value (mCST [6]; wild-type mCST)?
The value was “significantly quenched”.

And the Kd (mCST (W247L) [7])?
The Kd was 2.4 ± 1.5 µM.

What about the Kd (mCST∆C [1]) of the same compound?
Its Kd is 1.8 ± 0.4 µM.

What about the Kd (mCST (W160L) [8]) of the same compound?
Its Kd is 1.6 ± 0.4 µM.

What about the Kd (mCST (W207F)) of the same compound?
Its Kd is 3.8 ± 1.5 µM.

And the “Fold higher affinity of CMP towards mCST than CMP-Sia” value (mCST [2]; CMP versus CMP-Sia, Figure 1A)?
Its value is ~ 100 fold.

And the Kd (mCST [2]; crude estimation from two-point SPA data (30 nM [3H]CMP ± 5 µM unlabeled CMP), mCST, read-out: Kd (SPA 2-point))?
The Kd was 5.5 ± 1.6 µM.

And the Kd (mCST [2]; full SPA titration against 30 nM [3H]CMP, purified detergent-solubilized mCST, read-out: Kd (SPA titration))?
Its Kd is 6.3 ± 1.2 µM.

And the Kd (mCST (W160L) [9])?
The Kd was 11.9 ± 2.4 µM.

And the Kd (mCST (W145L) [10])?
The Kd was 0.8 ± 0.3 µM.

What about the “Rate of CMP generation from CMP-Sia hydrolysis” value [11] of the same compound?
The value was 0.0051 ± 0.00014 %/min and 0.0051 %/min.

And the Kd (mCST (W145L) [12])?
The Kd was 3.3 ± 1 µM.

And the Kd (mCST (W207L))?
The Kd was 1.5 ± 0.4 µM.

What about the “Quenching of intrinsic tryptophan fluorescence by CMP (in words)” value (mCST Trp207 mutants) of the same compound?
The value was “lack of any quenching”.

With O=c1ccn([C@@H]2O[C@H](COP(=O)(O)O)[C@@H](O)[C@H]2O)c(=O)[nH]1 [UMP, Uridine 5′-monophosphate] as the compound, how does the “Substrate quality for UDP-GlcNAc transporter (in words)” value (UDP-GlcNAc transporter) read?
The value was “poor substrate”.

What about the Kd (mCST∆C [1]) of the same compound?
Its Kd is 1620 ± 1120 µM.

What about the “Fold higher Ki for inhibiting CMP-Sia transport (versus CMP)” value (CST; ref Chiaramonte et al., 2001) of the same compound?
Its value is 20 fold.
